The source of these data is US4263437A, “Acetic acid derivatives of 5,6-dihydrobenzo[b]pyrido[3,2-f]thiepine and oxepine” (Nippon Chemiphar Co., Ltd., priority 1978, dated 1981).

This assay relates to carrageenan-induced edema in the hind paws. As to the kind of experiment: Carrageenan-induced hind paw edema in rats (oral administration). Type of assay: in vivo, Male Wistar rats. To be noted: Rattus norvegicus, 1 hour before 0.1 ml of 1% carrageenan, 3 hours. As for the experimental part:
Male Wistar rats each weighing about 100 g, one group consisting of 5 to 7 animals, were orally given the compounds according to this invention, and edema was induced in the hind paws by subcutaneous injections of 0.1 ml of 1% carrageenan one hour after the administration of the test compounds. Thereafter, the volumes of the hind paws were measured by a volume differential meter.

With `NC(=O)Cc1ccc2c(c1)CCc1cccnc1S2` [Compound 12, (5,6-Dihydro benzo[b]pyrido[3,2-f]thiepin-8yl)-acetamide], the inhibition in vivo at 5 mg/kg was found to be 43.9%.

Take `O=C(O)Cc1ccc2c(c1)CCc1ccccc1O2` [Compound 8, (10,11-Dihydro dibenzo[b,f]oxepin-2-yl)-acetic acid]: testing at 5 mg/kg gave an inhibition in vivo of 61.4%.

The compound `O=C(O)Cc1ccc2c(c1)CCc1ccccc1S2` [Compound 4, (10,11-Dihydro dibenzo[b,f]thiepin-2-yl)-acetic acid] registered an inhibition in vivo at 5 mg/kg of 45.3%.

For the compound `CCCCC1C(=O)N(c2ccccc2)N(c2ccccc2)C1=O` [Phenylbutazone, reference compound], the inhibition in vivo at 5 mg/kg amounted to 20.9%.

Regarding `O=C(O)Cc1ccc2c(c1)C(=O)Cc1ccccc1O2` [Compound 6, (10,11-dihydro-11-oxo dibenzo[b,f]oxepin-2-yl)-acetic acid], the inhibition in vivo at 5 mg/kg is 44.1%.

Compound `O=C(O)c1ccccc1Nc1cccc(C(F)(F)F)c1` [Flufenamic acid, reference compound] displayed an inhibition in vivo at 5 mg/kg of 29.3%.

Consider `O=C(O)Cc1ccc2c(c1)CCc1cccnc1S2` [Compound 11, (5,6-Dihydro benzo[b]pyrido[3,2-f]thiepin-8-yl)-acetic acid], for which the inhibition in vivo at 5 mg/kg was 59.7%.

As to `CCOC(=O)Cc1ccc2c(c1)C(=O)Cc1ccccc1S2` [Compound 3, Ethyl(10,11-dihydro-11-oxodibenzo[b,f]thiepin-2-yl)-acetate], testing at 5 mg/kg gave an inhibition in vivo of 50.6%.

On to `CCOC(=O)Cc1ccc2c(c1)C(=O)Cc1ccccc1O2` [Compound 7, Ethyl(10,11-dihydro-11-oxodibenzo[b,f]oxepin-2-yl)-acetate], for which at 5 mg/kg the inhibition in vivo was 47.9%.

Consider `O=C(O)Cc1ccc2c(c1)C(=O)Cc1ccccc1S2` [Compound 1, (10,11-Dihydro-11-oxo dibenzo[b,f]thiepin-2-yl)-acetic acid], for which the inhibition in vivo at 5 mg/kg was 58%.

`NC(=O)Cc1ccc2c(c1)C(=O)Cc1ccccc1S2` [Compound 2, (10,11-Dihydro-11-oxo dibenzo[b,f]thiepin-2-yl)-acetamide] had an inhibition in vivo at 5 mg/kg of 42.1%.

Take `CCOC(=O)Cc1ccc2c(c1)CCc1cccnc1S2` [Compound 13, Ethyl(5,6-dihydrobenzo[b]pyrido[3,2-f]thiepin-8-yl)-acetate]: 5 mg/kg produced 64.6% inhibition in vivo.

`CCOC(=O)Cc1ccc2c(c1)CCc1cccnc1O2` [Compound 15, Ethyl(5,6-dihydrobenzo[b]pyrido[3,2-f]oxepin-8-yl)-acetate] gave an inhibition in vivo at 5 mg/kg of 41.6%.

`CCOC(=O)Cc1ccc2c(c1)CCc1ccccc1O2` [Compound 9, Ethyl (10,11-dihydro dibenzo[b,f]oxepin-2-yl)-acetate] returned an inhibition in vivo at 5 mg/kg of 63.4%.

The compound `CCOC(=O)Cc1ccc2c(c1)CCc1ccccc1S2` [Compound 5, Ethyl(10,11-dihydrodibenzo[b,f]thiepin-2-yl)-acetate] gave an inhibition in vivo at 5 mg/kg of 46%.

Turning to `COC(=O)Cc1ccc2c(c1)C(=O)Cc1cccnc1S2` [Compound 10, Methyl (5,6-dihydro-6-oxo benzo[b]pyrido[3,2-f]thiepin-8-yl)-acetate], the inhibition in vivo at 5 mg/kg was 38.4%.

For `O=C(O)Cc1ccc2c(c1)CCc1cccnc1O2` [Compound 14, (5,6-Dihydro benzo[b]pyrido[3,2-f]oxepin-8-yl)-acetic acid], the inhibition in vivo at 5 mg/kg came to 50.6%.
